{
  "source": "patent US7598028B2",
  "about": "“Compositions and methods for detecting and treating prostate disorders” (The Regents of the University of Michigan, priority 2006, dated 2009)",
  "type_in_all_cases": "cell-based, human",
  "key": {"[1]": {"test_system": "p65 subunit of NFkappaB", "test": "Western blot, p65 phosphorylation in LNCaP cells", "experimental": "(§1) Western Blot and Protein Analysis. Cells were lysed, proteins resolved by electrophoresis, and electroblotting was carried out as described previously except that 20 ug protein was electrophoresed per gel lane for N15C6 cells and 100 ug protein for LNCaP cells (see, e.g., Begley L, et al., Aging Cell. 2005 December; 4(6):291-8; Begley L A, et al., J Biol. Chem. 2007 Sep. 14; 282(37):26767-74; each herein incorporated by reference in their entireties). Proteins were detected using antibodies against phospho-ERK½ (Cell Signaling #9101), total ERK½ (Cell Signaling, #9102), phospho-p65, (Rockland #100-401-264), total p65 (Rockland #100-4165), STAT3 (9139), phospho-STAT3 (9138), beta-actin (Santa Cruz #sc-1615), or tubulin (Upstate, #DM1A) in conjunction with an ECL detection system. Secondary antibodies included goat anti-rabbit (Cell Signaling, #7074) and goat anti-mouse (Santa Cruz, #SC-2005), and both were used at a 1:5000 concentration. Immunoblots shown are representative of triplicate experiments. Densitometric quantitation of immunoblot films was accomplished by scanning the original films and converting the .tiff files to grayscale. Images were inverted, and mean band intensities were measured using ImageJ (www, followed by, .nih.gov). The mean intensity of adjacent background was also measured for each band and subtracted from band intensity."}, "[2]": {"test_system": "STAT3", "test": "Western blot, STAT3 phosphorylation in N15C6 cells", "details": "10 pM, 100 pM or 1 nM CXCL5", "experimental": "as §1"}, "[3]": {"test_system": "22Rv1 prostate epithelial cells", "test": "Proliferation assay, 22Rv1", "details": "0.001-1 nM CXCL5, p<0.05", "experimental": "Proliferation Assays. Cellular proliferation was assessed after plating cells at 50,000 cell/well in triplicate in six well plates and counting cells after 24 and 96 hours of incubation as described previously (see, e.g., Begley L, et al., Genes Chromosomes Cancer. 2006 February; 45(2): 136-46; herein incorporated by reference in its entirety). To assess the effects of exogenous CXCL5 on cellular proliferation, recombinant human CXCL5 (R&D Systems, 254-X) was added at the desired concentration in 2 ml SF media (or 2 ml SF media alone for control) to each well. The cells were re-fed at 24 hours growth and counted at 24 and 96 hours growth. Cell counts were normalized to 50,000 cells at 24 hours to account for any plating discrepancies. Averages and standard deviations of cell number were calculated for each time point under each media condition. For the antibody blockade experiments, 10,000 cells per well were plated in triplicate in 24 well dishes and preincubated with mouse anti-human CXCR2 (Biosource AHR1532X) or mouse antihuman CXCR4 (BD Pharmingen 555971) at 1 ug/ml for 1 hour prior to CXCL5 addition. Cells were maintained in media containing appropriate antibodies for the entirety of the experiment and were counted at 24 and 96 hours as above."}},
  "data": [
    {"substance": "CXCL5: recombinant human CXCL5 (R&D Systems, 254-X), CXC-type chemokine", "values": [
      {"measurement": "phosphorylation of the p65 subunit of NFkappaB", "setting": "[1]; 10 pM or 100 pM CXCL5", "value": "rapidly and transiently phosphorylated"},
      {"measurement": "activation of NFkappaB", "setting": "[1]; nanomolar levels of CXCL5", "value": "not evident"},
      {"measurement": "STAT3 phosphorylation", "setting": "[2]", "value": "rapidly and transiently phosphorylated"},
      {"measurement": "proliferation versus SF media alone", "setting": "[3]", "value": "significantly higher"}
    ]}
  ]
}
